Tests used:
Type in all cases: cell-based, male wister rats
fat cells [1] = test: Synthesis of fat from glucose in fat cells; settings: 20 μg/ml; for Power for synthesis of neutral fat from glucose: 37° C., half an hour
Method: (§1) Fat tissues were separated from the epididymides of male wister rats weighing 150 to 180 g each, and fat cells were obtained therefrom in accordance with the Rodbell's method [M. Rodbell, J. Biol. Chem., 239, 375 (1964)]. A small section was prepared from 4 g of the fat tissue, and placed in 10 ml. of Krebs-Ringer bicarbonate buffer containing 0.4 g of albumin, 10 mg of collagenase and 5 mg of glucose, and having a pH value of 7.4. It was heated at 37° C. for 50 minutes, and subjected to centrifugal separation at 300 rpm, whereby a floating fat cell layer was separated. Added into the fat cell were 10 ml. of the aforesaid buffer (pH 7.4), and the solution was carefully stirred to wash the fat cell, followed by centrifugal separation at 300 rpm for 30 seconds. This procedure was repeated twice, whereby the fat cells were washed perfectly, and these fat cells were used for the tests.
^14 C-glucose having its carbon atoms marked with radioactivity was reacted upon fat cells, and a Geiger count was read to determine the amount of the glucose participating in the fat synthesis and incorporated into the fat cells as a neutral fat, whereby gynosaponins were tested for their effects on the power of the glucose for fat synthesis.
More specifically, the fat cells obtained by treating with collagenase were suspended in KRB, and 0.35 ml. of the resulting solution containing 100 mg of fat cells was placed into a test tube with 0.1 ml. of each saponin solution containing 20 μg of saponin, 0.5 ml. of a 5% albumin solution in KRB, containing 10 mM glucose and having a pH value of 7.4, and 0.05 ml. of a ^14 C-glucose solution which was a 0.5 μCi KRP solution having a pH value of 7.4 and containing 10 mM glucose. They were heated at 37° C. for half an hour, and after 5 ml. of Dole's extract were added and the whole was shaked for five minutes, 3 ml. of heptane and 2 ml. of water were added, and the whole was shaked for five minutes. 3 ml. of a heptane layer were separated, and after an alkaline ethanol solution (0.5 N sodium hydroxide solution, 50 % ethanol solution) was added in the amount of 3 ml., the whole was shaked for five minutes. Then, 1 ml. of an ethanol layer was separated, and 10 ml. of a toluene scintillation solution were added thereinto, followed by determination according to the method of Skipski et al. [Biochem. Biophys. Acta, 106, 386 (1965)].

fat cells [2] = test: Decomposition of the fat in the fat cell by ACTH; settings: ACTH 1 μg/ml + saponin 20 μg/ml, 37° C., two hours
Method: as §1
The fat cells obtained by treating with collagenase were suspended in Krebs-Ringer bicarbonate buffer (KRB) having a pH value of 7.4. Placed into a test tube were 0.3 ml. of the solution thus obtained (containing 100 mg of fat cells), 0.1 ml. of ACTH solution containing 1 μg of ACTH, 0.1 ml. of each saponin solution containing 500 μg of saponin, and 0.3 ml. of a 5% alubumin solution in KRB, and having a pH value adjusted to 7.4. They were heated at 37° C. for two hours, and the amount of the resulting free fatty acid was determined in accordance with the Dole's method [V. P. Dole, J. Biol. Chem., 35, 150 (1958)].
Namely, 3 ml. of Dole's extract were separated into the reaction system, and 1 ml. of a thymol blue solution was added thereinto. Nitrogen was blown into the resulting solution, and the solution was titrated with a 0.008 N aqueous solution of sodium hydroxide, while it was being stirred. The amount of the resulting free fatty acid was determined in accordance with a calibration curve.
The rate of inhibition against fat decomposition was obtained in accordance with the following equation: [formula] wherein A stands for the amount of the free fatty acid formed by addition of ACTH along in the amount of 1 μg/ml.; and B stands for the amount of the free fatty acid formed by addition of ACTH and saponin in the amount of 1 μg/ml. and 20 μg/ml., respectively.

fat cells [3] = test: Decomposition by adrenalin of the fat in the fat cells; settings: adrenalin 1 μg/ml + saponin 20 μg/ml, 37° C., two hours
Method: A small section was prepared from 4 g of the fat tissue, and placed in 10 ml. of Krebs-Ringer bicarbonate buffer containing 0.4 g of albumin, 10 mg of collagenase and 5 mg of glucose, and having a pH value of 7.4. […] Added into the fat cell were 10 ml. of the aforesaid buffer (pH 7.4), and the solution was carefully stirred to wash the fat cell, followed by centrifugal separation at 300 rpm for 30 seconds. This procedure was repeated twice, whereby the fat cells were washed perfectly, and these fat cells were used for the tests.
The fat cells obtained by treating with collagenase were suspended in Krebs-Ringer phosphate buffer (KRP) having a pH value of 7.4. Placed into a test tube were 0.3 ml. of the solution thus obtained, and containing 100 mg of fat cells, 0.1 ml. of an adrenalin solution containing 1 μg of adrenalin, 0.1 ml. of a saponin solution containing 20 μg of saponin, and 0.5 ml. of a 5% albumin solution in KRP, and having a pH value adjusted to 7.4. […] More specifically, 3 ml. of Dole's extract were placed in the reaction system, and after they were shaked for five minutes, 3 ml. of heptane were dispensed, and 1 ml. of a thymol blue solution was added thereinto. The resulting solution was titrated with a 0.008 N aqueous solution of sodium hydroxide, while it was being stirred with nitrogen, and the amount of the resulting free fatty acid was determined in accordance with a calibration curve.
The rate of inhibition was obtained in accordance with the equation shown at (1) above.

[4] = Rattus norvegicus, 2 h, read-out: Rate of inhibition

| Compound | Power for synthesis of neutral fat from glucose (fat cells [1]) | Rate of promotion (fat cells [1]; none = 100) [%] | Free fatty acid formed by decomposition of fat (fat cells [2]) [μ Eq/g] | Rate of inhibition (fat cells [2]) [%] | Free fatty acid formed by decomposition of fat (fat cells [3]) [μ Eq/g] | Rate of inhibition (fat cells [3]) [%] | activation at 20 µg/mL (fat cells [1]; Rattus norvegicus, 0.5 h, none = 100, read-out: Rate of promotion) [%] | inhibition at 20 µg/mL (fat cells [2]; [4]) [%] | inhibition at 20 µg/mL (fat cells [3]; [4]) [%] |
| --- | --- | --- | --- | --- | --- | --- | --- | --- | --- |
| 20S-Protopanaxadiol-3-O-{[β-D-glucopyranosyl (1→2)-α-L-rhamnopyranosyl (1→6)]-β-D-glucopyranoside} [progynosapogenin A--AH] | 10,550 cpm/g | 49 | 6.3 | 25 | 12.4 | 12 | – | – | – |
| CC(=CCCC(C)(OC1OC(COC2OC(C)C(O)C(O)C2O)C(O)C(O)C1O)C1CCC2(C)C1C(O)CC1C3(C)CCC(OC4OC(CO)C(O)C(O)C4OC4OC(CO)C(O)C(O)C4O)C(C)(C)C3CCC12C)CO [gynosaponin P, 20S,26-Hydroxyprotopanaxadiol-3-O-[β-D-glucopyranosyl (1→2)-β-D-glucopyranoside]-20-O-[α-L-rhamnopyranosyl (1→6)-β-D-glucopyranoside]] | 8,165 cpm/g | – | 6.6 | – | 12.7 | – | 38 | 21 | 10 |
| 20S-Protopanaxadiol-3-O-{[β-D-glucopyranosyl (1→2)-α-L-rhamnopyranosyl (1→6)]-β-D-glucopyranoside}-20-O-[α-L-rhamnopyranosyl (1→6)-β-D-glucopyranoside] [gynosaponin B] | 12,308 cpm/g | 57 | 6.9 | 18 | 9.1 | 35 | – | – | – |

From patent publication US4339442A, “Gynosaponins, their use and a process for preparing the same” (priority 1980, dated 1982)
